Reference: US20220380801A1, “TRIPARTITE SYSTEMS FOR PROTEIN DIMERIZATION AND METHODS OF USE” (priority 2019, published 2022)

System: iPSC single-cell clones with B2M-targeted kill switch
Experiment: Real-time cell analysis (RTCA) of kill switch activity in iPS cells
Format: cell-based, human
Settings: 1 nM simeprevir
Text: A stable induced pluripotency stem cell (iPSC) line (a single clone (B-3/1F1) derived from the fibroblast cells of a healthy human donor from Research Specimen Collection Program of Astrazeneca) stably expressing the simeprevir-inducible kill switch was generated using CRISPR/Cas9 technology, using AAV-encoded DNA as template for targeted integration into the β2 microglobulin (B2M) locus.
The donor construct (FIG. 33A) encoding the PRSIM-based kill switch (SEQ ID 223) was synthesized and purchased from GenScript, Inc. and was subcloned into an AAV shuttle plasmid backbone. The donor construct was packaged into adeno-associated viral (AAV) particles; briefly, the donor plasmid was co-transfected with two helper plasmids, pAd5Helper and pR2C6, encoding adenoviral components essential for AAV replication and AAV2 replication (rep)/AAV6 capsid (cap) proteins respectively. After 72 hours, the cells were collected and were disrupted by freeze-thawing. The cell lysate was digested with Benzonase (100 U/ml) for 1 hour at 37° C. and were centrifugated. The vector-containing supernatant was collected and applied to Iodixanol gradient followed by ultracentrifugation. After ultracentrifugation, the vector containing solution was collected and washed with 20 mL PBS in a centrifugal concentrator tube for 3 times. Finally, the solution was concentrated to 1 mL. […]

With `COc1ccc2c(O[C@@H]3C[C@H]4C(=O)N[C@]5(C(=O)NS(=O)(=O)C6CC6)C[C@H]5/C=C\CCCCN(C)C(=O)[C@@H]4C3)cc(-c3nc(C(C)C)cs3)nc2c1C` [simeprevir] the cell proliferation index (clones encoding the kill switch) was “dramatic reduction in cell proliferation index after 5 hours” and the cell proliferation index (parental iPSC cells) was “continued to proliferate”.
